IC50 data for 14 molecules are collected here from patent publication US11155544B2, “Heterocycle comprising tyrosine kinase inhibitors” (Principia Biopharma Inc., priority 2015, dated 2021).

For one assay, the target named is human recombinant BTK (Homo sapiens (Human), UniProt Q06187). As to the kind of experiment: BTK Enzymatic Activity Assay (Caliper-based kinase assay). It counts as biochemical. The following applies: human recombinant BTK (0.5 nM), ATP (16 μM), peptide substrate (1 μM), room temperature for 3 h. The method, then:
A Caliper-based kinase assay (Caliper Life Sciences, Hopkinton, Mass.) was used to measure inhibition of BTK kinase activity of a compound of the present disclosure. Serial dilutions of test compounds were incubated with human recombinant BTK (0.5 nM), ATP (16 μM) and a phosphoacceptor peptide substrate FAM-GEEPLYWSFPAKKK-NH2 (1 μM) at room temperature for 3 h. The reaction was then terminated with EDTA, final concentration 20 mM and the phosphorylated reaction product was quantified on a Caliper Desktop Profiler (Caliper LabChip 3000). Percent inhibition was calculated for each compound dilution and the concentration that produced 50% inhibition was calculated. This value is presented as the IC50.

A further assay has as its system CD69 expression. The assay can be described thus: Blockade of CD69 Expression in Human Whole Blood Samples. It counts as cell-based. The settings on record: 30 minutes pre-incubation, activation with anti-IgM, cells gated on CD20, CD69 by FACS. The method, then: Activation of the B cell receptor leads to increased BTK activity, calcium mobilization and B cell activation (see Honigberg L. A., et. al., Proc Natl Acad Sci USA. 107:13075-80. 2010). […] CD69 was expressed following B cell activation as a measure of BTK activity in whole blood. Aliquots of whole blood were pre-incubated with serial dilutions of test compound for 30 minutes followed by activation with anti-IgM (goat Fab′ 2, 50 μg/ml). Samples were incubated overnight at 37° C. and then stained with PE labeled anti-CD20 and APC labeled anti-CD69 (BD Pharmingen) for 30 minutes according to the manufacturer's directions. Whole blood was then lysed and cells gated on CD20 expression were quantified for CD 69 expression by FACS. The percent inhibition was calculated based on a DMSO control for no inhibition and plotted as a function of test compound concentration from which an IC50 value was calculated.
For orientation: A flow cytometer gives signals particle by particle.

human recombinant BTK, sequence (Q06187 whole entry): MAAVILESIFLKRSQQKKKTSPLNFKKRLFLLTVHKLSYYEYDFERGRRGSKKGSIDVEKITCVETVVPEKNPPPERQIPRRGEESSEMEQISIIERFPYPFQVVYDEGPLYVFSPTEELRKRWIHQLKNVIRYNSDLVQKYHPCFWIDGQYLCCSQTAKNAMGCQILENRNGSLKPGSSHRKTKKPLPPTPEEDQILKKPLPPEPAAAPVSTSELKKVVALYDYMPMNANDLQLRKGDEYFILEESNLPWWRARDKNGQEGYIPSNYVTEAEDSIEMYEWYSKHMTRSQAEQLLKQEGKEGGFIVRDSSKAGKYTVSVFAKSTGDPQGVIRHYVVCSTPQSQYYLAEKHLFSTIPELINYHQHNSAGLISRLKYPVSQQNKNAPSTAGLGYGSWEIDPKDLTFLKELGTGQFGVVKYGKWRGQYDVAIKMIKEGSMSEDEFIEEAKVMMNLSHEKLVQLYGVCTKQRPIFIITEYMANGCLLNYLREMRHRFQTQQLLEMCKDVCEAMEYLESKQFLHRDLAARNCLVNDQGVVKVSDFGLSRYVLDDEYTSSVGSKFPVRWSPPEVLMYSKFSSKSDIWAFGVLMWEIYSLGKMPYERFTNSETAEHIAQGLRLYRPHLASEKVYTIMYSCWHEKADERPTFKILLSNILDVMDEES

In general, IC50 refers to the concentration that gives 50% inhibition. Take `CC(C)(C)C=C(C#N)C(=O)N1CCC[C@@H](n2nc(-c3ccc(Oc4ccccc4)cc3F)c3c(N)nccc32)C1` [Compound 9, (R)-2-(3-(4-amino-3-(2-fluoro-4-phenoxyphenyl)-1H-pyrazolo[4,3-c]pyridin-1-yl)piperidine-1-carbonyl)-4,4-dimethylpent-2-enenitrile]: the IC50 on human recombinant BTK worked out at 0.0086 µM; in the assay on CD69 expression it was 0.526 µM.
Taken in the same sequence, the figures for `CN1CCN(C(C)(C)/C=C(\C#N)C(=O)N2CCC[C@@H](n3nc(-c4ccc(Oc5ccccc5)cc4F)c4c(N)nccc43)C2)CC1` [Compound 10, (R)-2-(3-(4-amino-3-(2-fluoro-4-phenoxyphenyl)-1H-pyrazolo[4,3-c]pyridin-1-yl)piperidine-1-carbonyl)-4-methyl-4-(4-methylpiperazin-1-yl)pent-2-enenitrile] were 0.0019 µM and 0.289 µM.
Taken in the same sequence, the figures for `CC(C)(/C=C(\C#N)C(=O)N1CCC[C@@H](n2nc(-c3ccc(Oc4ccccc4)cc3F)c3c(N)nccc32)C1)N1CCOCC1` [Compound 11, (R)-2-(3-(4-amino-3-(2-fluoro-4-phenoxyphenyl)-1H-pyrazolo[4,3-c]pyridin-1-yl)piperidine-1-carbonyl)-4-methyl-4-morpholinopent-2-enenitrile] were 0.002 µM and 0.2 µM.
For `CN1CCN(C(C)(C)C=C(C#N)C(=O)N2CCC[C@H]2Cn2nc(-c3ccc(Oc4ccccc4)cc3F)c3c(N)nccc32)CC1` [Compound 12, (S)-2-(2-((4-amino-3-(2-fluoro-4-phenoxyphenyl)-1H-pyrazolo[4,3-c]pyridin-1-yl)methyl)pyrrolidine-1-carbonyl)-4-methyl-4-(4-methylpiperazin-1-yl)pent-2-enenitrile], in that order: 0.014 µM and 0.874 µM.
On to `CC(C)(C=C(C#N)C(=O)N1CCC[C@H]1Cn1nc(-c2ccc(Oc3ccccc3)cc2F)c2c(N)nccc21)N1CCN(C2COC2)CC1` [Compound 13, (S)-2-(2-((4-amino-3-(2-fluoro-4-phenoxyphenyl)-1H-pyrazolo[4,3-c]pyridin-1-yl)methyl)pyrrolidine-1-carbonyl)-4-methyl-4-(4-(oxetan-3-yl)piperazin-1-yl)pent-2-enenitrile], for which the IC50 at human recombinant BTK turned out to be 0.0074 µM; in the assay with CD69 expression, 1.29 µM.
Taken in the same sequence, the figures for `CC(C)(C)C=C(C#N)C(=O)N1CCC[C@H]1Cc1nc(-c2ccc(Oc3ccccc3)cc2F)c2c(N)nccn12` [Compound 16, (S)-2-(2-((8-amino-1-(2-fluoro-4-phenoxyphenyl)imidazo[1,5-a]pyrazin-3-yl)methyl)pyrrolidine-1-carbonyl)-4,4-dimethylpent-2-enenitrile] were 0.0017 µM and 0.931 µM.
Taken in the same sequence, the figures for `CC(C)(/C=C(\C#N)C(=O)N1CCC[C@H]1Cc1nc(-c2ccc(Oc3ccccc3)cc2F)c2c(N)nccn12)N1CCOCC1` [Compound 17, (S)-2-(2-((8-amino-1-(2-fluoro-4-phenoxyphenyl)imidazo[1,5-a]pyrazin-3-yl)methyl)pyrrolidine-1-carbonyl)-4-methyl-4-morpholinopent-2-enenitrile] were 0.0029 µM and 0.165 µM.
As to `CN(C1COC1)C(C)(C)C=C(C#N)C(=O)N1CCC[C@H]1Cc1nc(-c2ccc(Oc3ccccc3)cc2F)c2c(N)nccn12` [Compound 18, (S)-2-(2-((8-amino-1-(2-fluoro-4-phenoxyphenyl)imidazo[1,5-a]pyrazin-3-yl)methyl)pyrrolidine-1-carbonyl)-4-methyl-4-(methyl(oxetan-3-yl)amino)pent-2-enenitrile], the IC50 was found to be 0.0043 µM on human recombinant BTK and 0.13 µM in the assay on CD69 expression.
On to `CC(C)(C=C(C#N)C(=O)N1CCC[C@H]1Cc1nc(-c2ccc(Oc3ccccc3)cc2F)c2c(N)nccn12)N1CCN(C2COC2)CC1` [Compound 19, (S)-2-(2-((8-amino-1-(2-fluoro-4-phenoxyphenyl)imidazo[1,5-a]pyrazin-3-yl)methyl)pyrrolidine-1-carbonyl)-4-methyl-4-(4-(oxetan-3-yl)piperazin-1-yl)pent-2-enenitrile], for which the IC50 amounted to 0.0235 µM on human recombinant BTK and 0.178 µM in the assay on CD69 expression.
For `CC(C)(C=C(C#N)C(=O)N1CCC[C@H]1Cn1nc(-c2ccc(Oc3ccccc3)cc2F)c2c(N)nccc21)N1CCOCC1` [Compound 22, (S)-2-(2-((4-amino-3-(2-fluoro-4-phenoxyphenyl)-1H-pyrazolo[4,3-c]pyridin-1-yl)methyl)pyrrolidine-1-carbonyl)-4-methyl-4-morpholinopent-2-enenitrile], in that order: 0.0025 µM and 0.511 µM.
For `CC(C)(C=C(C#N)C(=O)N1CCC[C@@H](n2nc(-c3ccc(Oc4ccccc4)cc3F)c3c(N)nccc32)C1)C1CCN(C2COC2)CC1` [Compound 23, (R)-2-(3-(4-amino-3-(2-fluoro-4-phenoxyphenyl)-1H-pyrazolo[4,3-c]pyridin-1-yl)piperidine-1-carbonyl)-4-methyl-4-(1-(oxetan-3-yl)piperidin-4-yl)pent-2-enenitrile], in that order: 0.0016 µM and 0.538 µM.
Taken in the same sequence, the figures for `CC(C)(C=C(C#N)C(=O)N1CCC[C@@H](n2nc(-c3ccc(Oc4ccccc4)cc3F)c3c(N)nccc32)C1)N1CCNC(=O)C1` [Compound 24, (R)-2-(3-(4-amino-3-(2-fluoro-4-phenoxyphenyl)-1H-pyrazolo[4,3-c]pyridin-1-yl)piperidine-1-carbonyl)-4-methyl-4-(3-oxopiperazin-1-yl)pent-2-enenitrile] were 0.0017 µM and 0.577 µM.
On to `CC(C)(C=C(C#N)C(=O)N1CCC[C@@H](n2nc(-c3ccc(Oc4ccccc4)c(F)c3)c3c(N)nccc32)C1)N1CCN(C2COC2)CC1` [Compound 26, (R)-2-(3-(4-amino-3-(3-fluoro-4-phenoxyphenyl)-1H-pyrazolo[4,3-c]pyridin-1-yl)piperidine-1-carbonyl)-4-methyl-4-(4-(oxetan-3-yl)piperazin-1-yl)pent-2-enenitrile], for which the results for the half-maximal inhibitory concentration (IC50) at human recombinant BTK and with CD69 expression were 0.003 µM and 0.367 µM, respectively.
Taken in the same sequence, the figures for “(R)-2-(3-(4-amino-3-(2-methyl-4-phenoxyphenyl)-1H-pyrazolo[4,3-c]pyridin-1-yl)piperidine-1-carbonyl)-4-methyl-4-(4-(oxetan-3-yl)piperazin-1-yl)pent-2-enenitrile [Compound 25]” were 0.0044 µM and 0.43 µM.
